According to patent US8962631B2 (Vertex Pharmaceuticals Incorporated, priority 2010, dated 2015):

Each molecule was assayed against T1, full-length ATR (Homo sapiens, UniProt Q13535) (assay: ATR Inhibition Assay (radioactive-phosphate incorporation)). Conditions: Ki(app); 10 μM ATP, 800 μM target peptide, 5 nM full-length ATR, 25° C.
T1 construct: Assays were carried out at 25° C. in the presence of 5 nM full-length ATR
Format: biochemical
Method: Compounds were screened for their ability to inhibit ATR kinase using a radioactive-phosphate incorporation assay. Assays were carried out in a mixture of 50 mM Tris/HCl (pH 7.5), 10 mM MgCl2 and 1 mM DTT. Final substrate concentrations were 10 μM [γ-33P]ATP (3 mCi 33P ATP/mmol ATP, Perkin Elmer) and 800 μM target peptide ([…] (SEQ. ID NO: 1)).
Assays were carried out at 25° C. in the presence of 5 nM full-length ATR. An assay stock buffer solution was prepared containing all of the reagents listed above, with the exception of ATP and the test compound of interest. 13.5 μL of the stock solution was placed in a 96 well plate followed by addition of 2 μL of DMSO stock containing serial dilutions of the test compound (typically starting from a final concentration of 15 μM with 3-fold serial dilutions) in duplicate (final DMSO concentration 7%). The plate was pre-incubated for 10 minutes at 25° C. and the reaction initiated by addition of 15 μL [γ-33P]ATP (final concentration 10 μM).
The reaction was stopped after 24 hours by the addition of 30 μL 0.1M phosphoric acid containing 2 mM ATP. A multiscreen phosphocellulose filter 96-well plate (Millipore, Cat no. MAPHN0B50) was pretreated with 100 μL 0.2M phosphoric acid prior to the addition of 45 μL of the stopped assay mixture. The plate was washed with […] 0.2M phosphoric acid. After drying, 100 μL Optiphase ‘SuperMix’ liquid scintillation cocktail (Perkin Elmer) was added to the well prior to scintillation counting (1450 Microbeta Liquid Scintillation Counter, Wallac).
After removing mean background values for all of the data points, Ki(app) data were calculated from non-linear regression analysis of the initial rate data using the Prism software package (GraphPad Prism version 3.0cx for Macintosh, GraphPad Software, San Diego Calif., USA).

T1 sequence (Q13535 whole entry): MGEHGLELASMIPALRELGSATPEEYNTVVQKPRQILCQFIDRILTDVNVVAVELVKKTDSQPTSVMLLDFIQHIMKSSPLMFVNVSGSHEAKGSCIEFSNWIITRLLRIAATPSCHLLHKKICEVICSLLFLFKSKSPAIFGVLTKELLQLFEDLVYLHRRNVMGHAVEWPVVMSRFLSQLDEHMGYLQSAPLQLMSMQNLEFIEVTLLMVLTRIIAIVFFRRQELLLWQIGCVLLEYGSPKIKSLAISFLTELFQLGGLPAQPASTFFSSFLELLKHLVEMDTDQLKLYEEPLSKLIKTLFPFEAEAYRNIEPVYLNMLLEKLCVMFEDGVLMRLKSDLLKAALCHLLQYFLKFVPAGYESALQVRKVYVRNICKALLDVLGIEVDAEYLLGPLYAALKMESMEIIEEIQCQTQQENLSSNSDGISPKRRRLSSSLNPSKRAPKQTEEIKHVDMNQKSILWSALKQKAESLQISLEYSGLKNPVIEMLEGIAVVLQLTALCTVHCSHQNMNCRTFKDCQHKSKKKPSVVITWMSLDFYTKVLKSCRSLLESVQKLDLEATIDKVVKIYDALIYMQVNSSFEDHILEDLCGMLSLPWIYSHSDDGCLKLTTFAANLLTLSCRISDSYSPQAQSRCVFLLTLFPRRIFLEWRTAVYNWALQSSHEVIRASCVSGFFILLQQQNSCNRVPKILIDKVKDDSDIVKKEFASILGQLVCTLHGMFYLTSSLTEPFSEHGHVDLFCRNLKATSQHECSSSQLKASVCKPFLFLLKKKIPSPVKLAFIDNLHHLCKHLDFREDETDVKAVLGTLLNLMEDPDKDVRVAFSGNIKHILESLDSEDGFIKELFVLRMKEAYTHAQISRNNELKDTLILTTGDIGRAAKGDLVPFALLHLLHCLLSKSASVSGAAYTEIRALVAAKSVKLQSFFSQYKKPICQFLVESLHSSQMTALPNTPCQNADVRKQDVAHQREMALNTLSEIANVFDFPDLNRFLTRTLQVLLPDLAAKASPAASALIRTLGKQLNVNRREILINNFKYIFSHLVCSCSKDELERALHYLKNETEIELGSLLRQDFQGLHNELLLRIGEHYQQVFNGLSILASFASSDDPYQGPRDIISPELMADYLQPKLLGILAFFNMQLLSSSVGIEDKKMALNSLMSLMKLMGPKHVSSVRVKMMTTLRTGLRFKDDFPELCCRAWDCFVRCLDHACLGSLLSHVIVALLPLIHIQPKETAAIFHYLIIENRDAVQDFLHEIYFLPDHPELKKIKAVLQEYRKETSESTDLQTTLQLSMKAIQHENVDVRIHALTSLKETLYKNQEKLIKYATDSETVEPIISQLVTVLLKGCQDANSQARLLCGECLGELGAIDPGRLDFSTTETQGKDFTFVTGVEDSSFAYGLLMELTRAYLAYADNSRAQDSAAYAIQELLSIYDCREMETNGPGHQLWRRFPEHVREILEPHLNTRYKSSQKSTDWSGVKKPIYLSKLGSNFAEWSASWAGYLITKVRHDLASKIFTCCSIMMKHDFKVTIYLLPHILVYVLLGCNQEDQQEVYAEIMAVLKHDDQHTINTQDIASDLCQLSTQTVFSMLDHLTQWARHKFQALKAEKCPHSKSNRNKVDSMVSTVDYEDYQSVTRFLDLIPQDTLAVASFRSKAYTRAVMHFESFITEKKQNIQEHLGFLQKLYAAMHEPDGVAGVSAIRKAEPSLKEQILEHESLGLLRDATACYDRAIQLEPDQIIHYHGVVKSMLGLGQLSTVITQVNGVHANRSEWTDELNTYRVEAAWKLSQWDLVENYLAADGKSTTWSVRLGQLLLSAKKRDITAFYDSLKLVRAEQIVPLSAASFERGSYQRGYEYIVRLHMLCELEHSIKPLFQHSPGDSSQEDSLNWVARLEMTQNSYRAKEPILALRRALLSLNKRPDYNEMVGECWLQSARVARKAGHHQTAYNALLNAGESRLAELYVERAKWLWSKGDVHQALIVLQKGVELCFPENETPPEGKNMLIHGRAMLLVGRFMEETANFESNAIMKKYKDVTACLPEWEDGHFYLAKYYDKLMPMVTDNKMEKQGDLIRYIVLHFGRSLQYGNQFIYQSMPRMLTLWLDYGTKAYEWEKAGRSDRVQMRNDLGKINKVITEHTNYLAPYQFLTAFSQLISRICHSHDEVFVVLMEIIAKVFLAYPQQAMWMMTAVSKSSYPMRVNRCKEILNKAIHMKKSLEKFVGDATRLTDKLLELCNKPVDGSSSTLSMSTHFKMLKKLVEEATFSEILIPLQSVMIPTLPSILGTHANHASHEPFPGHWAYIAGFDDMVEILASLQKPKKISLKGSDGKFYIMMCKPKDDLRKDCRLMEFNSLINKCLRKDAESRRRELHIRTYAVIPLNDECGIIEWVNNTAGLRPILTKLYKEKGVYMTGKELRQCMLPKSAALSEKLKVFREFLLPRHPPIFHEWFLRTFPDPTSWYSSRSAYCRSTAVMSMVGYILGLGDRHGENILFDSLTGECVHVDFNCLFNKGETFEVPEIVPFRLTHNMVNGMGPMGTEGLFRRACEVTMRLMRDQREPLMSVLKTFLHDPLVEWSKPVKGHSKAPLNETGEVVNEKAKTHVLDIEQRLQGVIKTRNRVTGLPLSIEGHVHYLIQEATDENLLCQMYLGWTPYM

Ki, 1 to 8 µM:
Cc1ccc2nc(-c3nc(C(=O)Nc4ccc(N5CCN(C)CC5)nc4)cnc3N)[nH]c2c1 [II-45, 5-Amino-6-(6-methyl-1H-benzimidazol-2-yl)-N-[6-(4-methylpiperazin-1-yl)-3-pyridyl]pyrazine-2-carboxamide]
COCCNC(=O)c1cnc(N)c(-c2nc3ccc(C)cc3[nH]2)n1 [II-71, 5-Amino-N-(2-methoxyethyl)-6-(6-methyl-1H-benzimidazol-2-yl)pyrazine-2-carboxamide]
CC(=O)Nc1cccc(Oc2cnc(N)c(-c3nc4ccccc4[nH]3)n2)c1 [II-9, N-[3-[5-Amino-6-(1H-benzimidazol-2-yl)pyrazin-2-yl]oxyphenyl]acetamide]
Cc1ccc2nc(-c3nc(C(=O)N4CCOCC4)cnc3N)[nH]c2c1 [II-53, [5-Amino-6-(6-methyl-1H-benzimidazol-2-yl)pyrazin-2-yl]-morpholino-methanone]
CC(C)Oc1cnc(N)c(-c2nc3ccccc3[nH]2)n1 [II-13, 3-(1H-Benzimidazol-2-yl)-5-isopropoxy-pyrazin-2-amine]
CC(=O)Nc1ccc(Oc2cnc(N)c(-c3nc4ccc(C)cc4[nH]3)n2)cc1 [II-18, N-[4-[5-Amino-6-(6-methyl-1H-benzimidazol-2-yl)pyrazin-2-yl]oxyphenyl]acetamide]
COC/C=C/c1cnc(N)c(-c2nc3ccc(C)cc3[nH]2)n1 [II-80, 5-[(E)-3-Methoxyprop-1-enyl]-3-(6-methyl-1H-benzimidazol-2-yl)pyrazin-2-amine]
Cc1ccc2nc(-c3nc(C#CCNC(N)=O)cnc3N)[nH]c2c1 [II-86, 3-[5-Amino-6-(6-methyl-1H-benzimidazol-2-yl)pyrazin-2-yl]prop-2-ynylurea]
Cc1ccc2nc(-c3nc(Oc4c(F)cccc4F)cnc3N)[nH]c2c1 [II-22, 5-(2,6-Difluorophenoxy)-3-(6-methyl-1H-benzimidazol-2-yl)pyrazin-2-amine]

Ki, ≤ 0.5 µM:
COC(=O)c1cnc(N)c(-c2nc3ccc(C)cc3[nH]2)n1 [II-47, Methyl 5-amino-6-(6-methyl-1H-benzo[d]imidazol-2-yl)pyrazine-2-carboxylate]
COc1ccc(CNC(=O)c2cnc(N)c(-c3nc4ccc(C)cc4[nH]3)n2)cc1 [II-65, 5-Amino-N-[(4-methoxyphenyl)methyl]-6-(6-methyl-1H-benzimidazol-2-yl)pyrazine-2-carboxamide]

Ki, 0.5 to 1 µM:
Cc1ccc2nc(-c3nc(C(=O)NCc4ccco4)cnc3N)[nH]c2c1 [II-68, 5-Amino-N-(2-furylmethyl)-6-(6-methyl-1H-benzimidazol-2-yl)pyrazine-2-carboxamide]
CC(C)(O)C#Cc1cnc(N)c(C(=O)Nc2ccccc2)n1 [II-81, 3-Amino-6-(3-hydroxy-3-methyl-but-1-ynyl)-N-phenyl-pyrazine-2-carboxamide]
Cc1ccc2nc(-c3nc(C#CCNS(C)(=O)=O)cnc3N)[nH]c2c1 [II-87, N-[3-[5-Amino-6-(6-methyl-1H-benzimidazol-2-yl)pyrazin-2-yl]prop-2-ynyl]methanesulfonamide]
Cc1ccc2nc(-c3nc(C(=O)N(C)Cc4ccccc4)cnc3N)[nH]c2c1 [II-58, 5-Amino-N-benzyl-N-methyl-6-(6-methyl-1H-benzimidazol-2-yl)pyrazine-2-carboxamide]

Same assay, conditions: at 15 uM compound; read-out: percent inhibition against ATR

Inhibition at 15 µM, 25 to 45%:
Cc1ccc2nc(-c3nc(C(=O)Nc4ccccc4)cnc3N)[nH]c2c1 [II-41, 5-Amino-6-(6-methyl-1H-benzimidazol-2-yl)-N-phenyl-pyrazine-2-carboxamide]
Cc1ccc2nc(-c3nc(C(=O)NCC4CCCCC4)cnc3N)[nH]c2c1 [II-63, 5-Amino-N-(cyclohexylmethyl)-6-(6-methyl-1H-benzimidazol-2-yl)pyrazine-2-carboxamide]

Inhibition at 15 µM, 15 to 24%:
Nc1ncc(Sc2ccccc2)nc1-c1nc2ccccc2[nH]1 [II-38, 3-(1H-Benzimidazol-2-yl)-5-phenylsulfanyl-pyrazin-2-amine]
